Results taken from US11613686B2, “Associative copolymers with hydrophobic quaternized (meth)acrylamide and (meth)acrylic acid derivatives” (BASF SE, priority 2018, dated 2023).

Assay: Solubility tests of monomer 1 in the monomer solution with auxiliary surfactants (additives)
Assay type: physicochemical
Protocol: In order to solubilize monomer 1 the monomer was first dissolved in ethanol and then added to the monomer solution. This approach is used for AIBN, which has a low solubility in the monomer solution, too. […] Therefore, the use of auxiliary surfactants (additives) was tested.
These tests were done in first instance with 0.1 mol % of 1-4.

Result (solubility of monomer 1) (Additive 1 Aromox C/12 2-20 eq, additive 2 Disponil A 1080 0-5 eq, same recipe): Not soluble***
Result (solubility of monomer 1) (Additive 1 Aromox MCD 2-20 eq, additive 2 Disponil A 1080 0-5 eq, same recipe): Not soluble***
Result (solubility of monomer 1) (Additive 1 C14TAB 2-20 eq, additive 2 Disponil A 1080 0-5 eq, same recipe): Not soluble***
Result (solubility of monomer 1) (Additive 1 Dehyquart E-CA 2-20 eq, additive 2 Disponil A 1080 0-5 eq, same recipe): Not soluble***
Result (solubility of monomer 1) (Additive 1 Deriphat 160 C 2-20 eq, additive 2 Disponil A 1080 0-5 eq, same recipe): Not soluble***
Result (solubility of monomer 1) (Additive 1 Disponil A 1080 2-20 eq, no additive 2, same recipe): Partly dissolved
Result (solubility of monomer 1) (Additive 1 Glucopon 225DK 2-20 eq, additive 2 Disponil A 1080 0-5 eq, same recipe): Not soluble***
Result (solubility of monomer 1) (Additive 1 Lutensol AO 11 2-20 eq, additive 2 Disponil A 1080 0-5 eq, same recipe): Not soluble***
Result (solubility of monomer 1) (Additive 1 Lutensol AT 18 2-20 eq, additive 2 Disponil A 1080 0-5 eq, same recipe): Not soluble***
Result (solubility of monomer 1) (Additive 1 Lutensol TO 129 2-20 eq, additive 2 Disponil A 1080 0-5 eq, same recipe): Not soluble***
Result (solubility of monomer 1) (Additive 1 Lutensol XP 100 2-20 eq, additive 2 Disponil A 1080 0-5 eq, same recipe): Not soluble***
Result (solubility of monomer 1) (Additive 1 SDS 2-20 eq, additive 2 Disponil A 1080 0-5 eq, same recipe): Not soluble***
Result (solubility of monomer 1) (Additive 1 Texapon NSO 2-20 eq, additive 2 Disponil A 1080 0-5 eq, same recipe): Not soluble***
Result (solubility of monomer 1) (no additive, recipe 27 mol % sodium acrylate, 72.9 mol % acrylamide, 0.1 mol % 1): Not soluble***
Structure (SMILES): C=C(C)C(=O)NCCC[N+](C)(C)CCCCCCCCCCCC [Monomer 1]
